Assay results from ChEMBL document CHEMBL1201862, “PubChem BioAssay data set” (2004).
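Step 1: Grow cells in 96-well plates. Step 2: Expose to compound for 48 hours at 5 concentrations. Step 3: Interpolate endpoints linearly; if unreached, use highest concentration. GI50 = concentration required for 50% inhibition of growth.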 Calls of active or inactive are those of the source. Rule as the data show it: active = GI50 up to about 1.1 µM and inactive = higher.

How the values were obtained:
Experiment in all cases: NCI tumour cell line growth inhibition, 48 h
[1] = system: NCI-H460
[2] = system: COLO 205
[3] = system: HL-60
[4] = system: MDA-MB-231
[5] = system: HOP-62
[6] = system: M14
[7] = system: CAKI-1
[8] = system: SF-295
[9] = system: SW-620
[10] = system: Malme-3M
[11] = system: HT-29
[12] = system: CCRF-CEM
[13] = system: DU-145
[14] = system: OVCAR-5
[15] = system: OVCAR-8
[16] = system: 786-0
[17] = system: BT-549
[18] = system: SK-MEL-2
[19] = system: UO-31
[20] = system: Hs-578T

Cc1cc(S(=O)(=O)/N=C2\NCCN2Cc2ccccc2)c(S)cc1Cl
GI50 [1]: > 100 µM (inactive) | GI50 [2]: > 100 µM (inactive) | GI50 [3]: > 100 µM (inactive) | GI50 [4]: > 100 µM (inactive) | GI50 [5]: 76.2 µM (inactive) | GI50 [6]: > 100 µM (inactive) | GI50 [7]: > 100 µM (inactive) | GI50 [8]: 81.7 µM (inactive) | GI50 [9]: > 100 µM (inactive) | GI50 [10]: 43.7 µM (inactive) | GI50 [11]: > 100 µM (inactive) | GI50 [12]: 7.35 µM (inactive) | GI50 [13]: > 100 µM (inactive) | GI50 [14]: > 100 µM (inactive) | GI50 [15]: > 100 µM (inactive) | GI50 [16]: > 100 µM (inactive) | GI50 [17]: > 100 µM (inactive) | GI50 [18]: > 100 µM (inactive)

CS(=O)(=O)CC(=O)c1ccccc1
GI50 [1]: > 100 µM (inactive) | GI50 [2]: > 100 µM (inactive) | GI50 [3]: > 100 µM (inactive) | GI50 [19]: > 100 µM (inactive) | GI50 [5]: > 100 µM (inactive) | GI50 [6]: > 100 µM (inactive) | GI50 [8]: > 100 µM (inactive) | GI50 [9]: > 100 µM (inactive) | GI50 [10]: > 100 µM (inactive) | GI50 [11]: > 100 µM (inactive) | GI50 [12]: > 100 µM (inactive) | GI50 [13]: > 100 µM (inactive) | GI50 [14]: > 100 µM (inactive) | GI50 [20]: > 100 µM (inactive) | GI50 [15]: > 100 µM (inactive) | GI50 [16]: > 100 µM (inactive) | GI50 [17]: > 100 µM (inactive) | GI50 [18]: > 100 µM (inactive)

CN(C)C1(N(C)C)Oc2c(c(=O)n(C)c(=O)n2C)C(c2ccccc2)C1(F)F (stereo unspecified)
GI50 [1]: > 100 µM (inactive) | GI50 [2]: > 100 µM (inactive) | GI50 [4]: > 100 µM (inactive) | GI50 [19]: > 100 µM (inactive) | GI50 [5]: > 100 µM (inactive) | GI50 [6]: > 100 µM (inactive) | GI50 [7]: > 100 µM (inactive) | GI50 [8]: > 100 µM (inactive) | GI50 [9]: > 100 µM (inactive) | GI50 [12]: > 100 µM (inactive) | GI50 [13]: > 100 µM (inactive) | GI50 [14]: > 100 µM (inactive) | GI50 [16]: > 100 µM (inactive) | GI50 [17]: > 100 µM (inactive) | GI50 [18]: > 100 µM (inactive)

N#Cc1nc2cc(Cl)ccc2nc1N1CCN(c2ccc([N+](=O)[O-])cc2)CC1
GI50 [1]: > 100 µM (inactive) | GI50 [2]: > 100 µM (inactive) | GI50 [4]: > 100 µM (inactive) | GI50 [19]: > 100 µM (inactive) | GI50 [5]: > 100 µM (inactive) | GI50 [6]: > 100 µM (inactive) | GI50 [7]: > 100 µM (inactive) | GI50 [8]: > 100 µM (inactive) | GI50 [9]: > 100 µM (inactive) | GI50 [11]: > 100 µM (inactive) | GI50 [13]: > 100 µM (inactive) | GI50 [14]: > 100 µM (inactive) | GI50 [20]: > 100 µM (inactive) | GI50 [15]: > 100 µM (inactive) | GI50 [16]: > 100 µM (inactive) | GI50 [17]: > 100 µM (inactive)

Cc1ccc(Cc2nn(C)c(=O)n2N)cc1
GI50 [1]: > 100 µM (inactive) | GI50 [2]: > 100 µM (inactive) | GI50 [4]: > 100 µM (inactive) | GI50 [19]: > 100 µM (inactive) | GI50 [6]: > 100 µM (inactive) | GI50 [7]: > 100 µM (inactive) | GI50 [8]: > 100 µM (inactive) | GI50 [9]: > 100 µM (inactive) | GI50 [11]: > 100 µM (inactive) | GI50 [13]: > 100 µM (inactive) | GI50 [14]: > 100 µM (inactive) | GI50 [15]: > 100 µM (inactive) | GI50 [16]: > 100 µM (inactive) | GI50 [17]: > 100 µM (inactive) | GI50 [18]: > 100 µM (inactive)

C=C(C)[C@@]1(O)CCCC[C@@H]1CC(Sc1ccccc1)Sc1ccccc1
GI50 [1]: 13.9 µM (inactive) | GI50 [2]: 16.4 µM (inactive) | GI50 [3]: 15.2 µM (inactive) | GI50 [4]: 17.1 µM (inactive) | GI50 [19]: 16 µM (inactive) | GI50 [5]: 16.5 µM (inactive) | GI50 [6]: 17.9 µM (inactive) | GI50 [7]: 14.9 µM (inactive) | GI50 [8]: 16.6 µM (inactive) | GI50 [10]: 12.6 µM (inactive) | GI50 [11]: 18.2 µM (inactive) | GI50 [12]: 23.4 µM (inactive) | GI50 [13]: 15.7 µM (inactive) | GI50 [14]: 16.3 µM (inactive) | GI50 [20]: 15.7 µM (inactive) | GI50 [15]: 19.5 µM (inactive) | GI50 [16]: 17.8 µM (inactive) | GI50 [18]: 12.8 µM (inactive)

COc1cc(/C=N/n2c(C)n[nH]c2=O)cc(OC)c1OC
GI50 [1]: > 100 µM (inactive) | GI50 [2]: > 100 µM (inactive) | GI50 [4]: 57.5 µM (inactive) | GI50 [19]: 84.3 µM (inactive) | GI50 [5]: > 100 µM (inactive) | GI50 [6]: > 100 µM (inactive) | GI50 [7]: > 100 µM (inactive) | GI50 [8]: > 100 µM (inactive) | GI50 [9]: > 100 µM (inactive) | GI50 [10]: > 100 µM (inactive) | GI50 [11]: 90.4 µM (inactive) | GI50 [12]: 89.5 µM (inactive) | GI50 [14]: 80.5 µM (inactive) | GI50 [20]: 0.583 µM (active) | GI50 [15]: > 100 µM (inactive) | GI50 [16]: > 100 µM (inactive) | GI50 [17]: 78 µM (inactive) | GI50 [18]: > 100 µM (inactive)

CCOC(=O)c1[nH]c(-c2[nH]c(-c3[nH]c(-c4[nH]c(C(=O)OCC)c(C)c4C(=O)OCC)c(C(=O)OCC)c3C)c(C)c2C(=O)OCC)c(C(=O)OCC)c1C
GI50 [1]: > 100 µM (inactive) | GI50 [2]: > 100 µM (inactive) | GI50 [3]: > 100 µM (inactive) | GI50 [4]: > 100 µM (inactive) | GI50 [5]: > 100 µM (inactive) | GI50 [6]: > 100 µM (inactive) | GI50 [7]: > 100 µM (inactive) | GI50 [8]: > 100 µM (inactive) | GI50 [9]: > 100 µM (inactive) | GI50 [10]: > 100 µM (inactive) | GI50 [11]: > 100 µM (inactive) | GI50 [12]: > 100 µM (inactive) | GI50 [13]: > 100 µM (inactive) | GI50 [14]: > 100 µM (inactive) | GI50 [20]: > 100 µM (inactive) | GI50 [15]: > 100 µM (inactive) | GI50 [16]: > 100 µM (inactive) | GI50 [18]: > 100 µM (inactive)
